Data published in patent US11007216B2, “Combination therapy to achieve enhanced antimicrobial activity” (International Business Machines Corporation, priority 2019, dated 2021).

Tested on: A. baumannii
Assay: minimum inhibitory concentration (MIC) against A. baumannii
Type: cell-based, Acinetobacter baumannii

| Molecule | MIC |
| --- | --- |
| CC(=O)OC[C@H]1O[C@@H]([S-])[C@H](OC(C)=O)[C@@H](OC(C)=O)[C@@H]1OC(C)=O.CCP(CC)CC.[Au+] [Auranofin, (2,3,4,6-Tetra-O-acetyl-1-thio-β-D-glucopyranosato-κS^1)(triethylphosphoranylidene)gold] | 15.6 µg/mL |
| Colistin | 1 µg/mL |
